In the NIST ThermoML archive (doi:10.1016/j.jct.2012.01.018):
Numbers after ± are expanded uncertainties.

Experiments:
[1] = Crystal; visual observation
[2] = molar enthalpy of vaporization or sublimation; conditions: 298.15 K; Crystal; drop calorimetry

Normal melting temperature [1]: 110 ± 1 °C | molar enthalpy [2]: 24.3 ± 2.06 kcal/mol
Compound: O=[N+]([O-])c1cccc2nsnc12 [4-nitro-2,1,3-benzothiadiazole]
